Assay results taken from patent US7781446B2, “Use of CCI-779 as an antineoplastic agent” (Wyeth LLC, priority 2000, dated 2010).

Key:
[1] = tested on: advanced cancer (solid tumors) refractory to standard therapy; assay: Phase I clinical trial, 30 minute i.v. infusion once weekly; format: in vivo, human; settings: for number of partial responses: weekly dosage schedule
Description: (§1) Two single agent (CCI-779) Phase I clinical trials have been conducted. In the first study, CCI-779 was administered as a 30 minute i.v. infusion daily for 5 days, every two to three weeks. In the second study, CCI-779 was administered as a 30 minute i.v. infusion, once weekly. Both trials were open label, ascending dose, single-arm, multicenter studies. Patients were allowed to continue treatment as long as the CCI-779 was tolerated and there was no evidence of obvious disease progression. The following eligibility criteria were used:
(§2) Inclusion Criteria • 1. Patients with a histologic diagnosis of advanced cancer (solid tumors and, in the first study, lymphomas) who are refractory to standard therapy or for whom standard therapy is not appropriate. • 2. Measurable or evaluable disease. • 3. At least 3 weeks since prior chemotherapy and/or radiation therapy (6 weeks since nitrosoureas or mitomycin C). • 4. At least 4 weeks since any other investigational agent. • 5. Age at least 18 years old. • 6. Adequate bone marrow, renal, and hepatic function. • 7. Serum cholesterol<350 mg/dL and triglycerides […]. • 8. ECOG performance status 0-2. • 9. Life expectancy of at least 3 months. • 10. Signed, dated, witnessed written informed consent.
(§3) A total of 63 patients and 24 patients were enrolled in first and second studies, respectively. Dose levels ranged from 0.75-24 mg/m^2 and 7.5-220 mg/m^2, with the daily×5 every 2 weeks and weekly schedules, respectively.

[2] = tested on: Renal tumor line SN12-C; assay: In vitro growth of human renal tumor cells, 3H-thymidine uptake; format: cell-based; settings: 48 hours with drug
Description: (§4) In vitro test procedure: Renal tumor lines HTB-44 and CRL-1161 were obtained from the American Tissue Culture Collection (ATCC), Bethesda, Md. SN12-C line was obtained from Dr. J. Fidler, M. D. Anderson Hospital, Houston, Tex. Cells were plated in MEM (Gibco) supplemented with 2 mM glutamine, 1 mM sodium pyruvate, 5 ml penicillin-streptomycin solution, 1 mM non-essential amino acid solution, 10% fetal bovine solution. Cells (5×10^3) were plated in 96 well plates with a final volume of […] and incubated for 24 hours at 37° C. Log dilutions of CCI-779 beginning at 100 μg/ml were then added to the cultures for 48 hours. Over the last 5 hours, cells were pulsed with 1 μci ^3H-thymidine (New England Nuclear, 6.7 ci/m Mol). Cells were then harvested and the degree of thymidine uptake determined by liquid scintillation spectrometry. The IC50 was determined as the concentration that produced 50% of the maximum uptake of thymidine in control untreated cells.
(§5) Human renal cell tumors were cultured in vitro in the presence or absence of CCI-779 for 3 days and the effect on growth determined by ^3H-thymidine incorporation of control versus treated cells.

[3] = tested on: Renal tumor line HTB-44; assay: as above; format: cell-based; settings: 48 hours with drug
Description: as §4, §5

[4] = tested on: Renal tumor line CRL-1161; assay: as above; format: cell-based; settings: 48 hours with drug
Description: as §4, §5

[5] = tested on: advanced cancer (solid tumors and lymphomas) refractory to standard therapy; assay: Phase I clinical trial, 30 minute i.v. infusion daily for 5 days every two to three weeks; format: in vivo, human
Description: as §1, §2, §3

[6] = tested on: HTB-44 human renal tumor cells; assay: Human renal tumor cell xenograft in nude mice; format: in vivo, Balb/c nu/nu mice; settings: HTB-44 xenograft; for Tumor Mass / % T/C (Treated/Control × 100): 25 mg/kg oral
Description: (§6) In vivo test procedure: Female Balb/c nu/nu mice were obtained from Charles River Labs, Wilmington, Del., at 6-8 weeks of age. Mice (n=10/group) were injected sc with 5×10^6 cells resuspended in a 50% solution of Matrigel (BD Biosciences) and tumors allowed to develop. When tumor size reached 100 mg, mice were treated orally with CCI-779 at 25 mg/kg. CCI-779 was dosed for 5 consecutive days with repeated 14 day cycles throughout the duration of the experiment. The formulation used for CCI-779 was a 50% ethanol, 49% phosal, 1% tween 80 vehicle for resuspending CCI-779, where the stock was resuspended into a 1:10 dilution of the vehicle prior to dosing. Tumor growth was evaluated using a vernier caliper and volume (l×w×h) was converted to mass using the formula: 1×w^2/2.
(§7) The effect of CCI-779 in two human renal lines (HTB-44 and CRL-1161) was evaluated in vivo by engrafting tumor cells on the flanks of nude mice. Once tumors were established at a size of about 100 mg, mice were treated with CCI-779 or a vehicle control.

[7] = tested on: CRL-1161 human renal tumor cells; assay: Human renal tumor cell xenograft in nude mice; format: in vivo, Balb/c nu/nu mice; settings: CRL-1161 xenograft; for Tumor Mass / % T/C (Treated/Control × 100): 25 mg/kg oral
Description: as §6, §7

[8] = patients having renal cancer, weekly schedule
[9] = Homo sapiens, read-out: CCI-779 IC50 (50% growth inhibitory concentration)
[10] = patients having soft tissue sarcoma, daily×5 dosage schedule
[11] = renal cancer patients, daily×5 schedule
[12] = 5 consecutive days, 14 day cycles, day 0
[13] = 25 mg/kg, versus vehicle control

## CO[C@H]1C[C@@H]2CC[C@@H](C)[C@@](O)(O2)C(=O)C(=O)N2CCCC[C@H]2C(=O)O[C@H]([C@H](C)C[C@@H]2CC[C@@H](OC(=O)C(C)(CO)CO)[C@H](OC)C2)CC(=O)[C@H](C)/C=C(\C)[C@@H](O)[C@@H](OC)C(=O)[C@H](C)C[C@H](C)/C=C/C=C/C=C/1C [CCI-779, rapamycin 42-ester with 3-hydroxy-2-(hydroxymethyl)-2-methylpropionic acid]
[1]; [8]
  number of minor responses (≧25% but<50% reduction in tumor size): 2
  number of partial responses (≧50% reduction in tumor size): 1
[1]; patients with breast cancer
  number of partial responses: one
[1]; patients with neuroendocrine tumor of the lung
  number of partial responses: one
[2]
  CCI-779 IC50 (50% growth inhibitory concentration): low nM range
[2]; Homo sapiens, SN12C, read-out: CCI-779 IC50 (50% growth inhibitory concentration)
  IC50: 5.5 nM
[3]
  CCI-779 IC50 (50% growth inhibitory concentration): low nM range
[3]; [9]
  IC50: 5 nM
[4]
  CCI-779 IC50 (50% growth inhibitory concentration): low nM range
[4]; [9]
  IC50: 2 nM
[5]; patients having cervical cancer, daily×5 dosage schedule
  number of minor responses: one
[5]; patients having non-small cell lung cancer, daily×5 dosage schedule
  number of partial responses: one
[5]; [10]
  number of minor responses: 2
  number of possible partial responses: 1
  number of stable disease: 1
[5]; patients having uterine cancer, daily×5 dosage schedule
  number of unconfirmed minor responses: one
[5]; [11]
  duration of stable disease: approximately 5 months
  number of minor responses: 1
  number of stable disease (<25% increase to <25% reduction in tumor size): 1
  number of unconfirmed minor responses: 1
[6]; [12]
  Tumor Mass: 290 ± 15 mg
[6]; day 0
  % T/C (Treated/Control × 100): 101%
[6]; day 7
  % T/C (Treated/Control × 100): 71%
  Tumor Mass: 156 ± 13 mg
[6]; day 21
  % T/C (Treated/Control × 100): 41%
  Tumor Mass: 252 ± 48 mg
[6]; day 35
  % T/C (Treated/Control × 100): 41%
  Tumor Mass: 453 ± 85 mg
[6]; day 49
  % T/C (Treated/Control × 100): 48%
  Tumor Mass: 980 ± 155 mg
[6]; day 55
  % T/C (Treated/Control × 100): 44%
  Tumor Mass: 1050 ± 183 mg
[6]; [13]
  inhibition of tumor cell growth in the mice: significant inhibition of tumor cell growth
[7]; [12]
  Tumor Mass: 272 ± 14 mg
[7]; day 0
  % T/C (Treated/Control × 100): 100%
[7]; day 7
  % T/C (Treated/Control × 100): 62%
  Tumor Mass: 219 ± 16 mg
[7]; day 21
  % T/C (Treated/Control × 100): 60%
  Tumor Mass: 226 ± 17 mg
[7]; day 35
  % T/C (Treated/Control × 100): 42%
  Tumor Mass: 200 ± 21 mg
[7]; day 49
  % T/C (Treated/Control × 100): 42%
  Tumor Mass: 229 ± 28 mg
[7]; day 55
  % T/C (Treated/Control × 100): 53%
  Tumor Mass: 268 ± 30 mg
[7]; [13]
  inhibition of tumor cell growth in the mice: significant inhibition of tumor cell growth
